From the supplement of paper PMC10627819

Assays:
[1] = system: B. subtilis 168; experiment: fitness (endpoint OD595 vs no drug) (fraction); higher = more growth
Summary of the method: (§1)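 Cultures at OD595 0.01 were dispensed into 384-well plates in TSB, LB Lennox or CY and incubated at 37 °C. Every 30 min for 14 h, OD595 was read and corrected by the first reading. Fitness is the optical density at entry into stationary phase relative to the robust mean of no-drug control wells, capped at 1.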

[2] = system: S. aureus DSM 20231; experiment: as above
Summary of the method: as §1

[3] = system: S. aureus Newman; experiment: as above
Summary of the method: as §1

[4] = system: S. pneumoniae D39V; experiment: as above
Summary of the method: as §1

[5] = system: B. subtilis 168; experiment: Bliss interaction score (quartile over a dose matrix) (fitness difference); higher = more antagonism (negative = synergy)
Summary of the method: (§2)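 Values were capped at 1 after dividing OD595 at stationary-phase entry by the plate's robust no-drug mean. This ratio is fitness, and single-drug fitness was inferred from the combination data. The Bliss score is observed minus product-expected fitness, given as quartiles over technical, biological and donor/recipient replicates.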

[6] = system: S. aureus DSM 20231; experiment: as above
Summary of the method: as §2

[7] = system: S. aureus Newman; experiment: as above
Summary of the method: as §2

[8] = system: S. pneumoniae D39V; experiment: as above
Summary of the method: as §2
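For Bliss interaction score (quartile over a dose matrix) in this document: first quartile when negative (synergy) and third quartile when positive (antagonism).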

CO/N=C(\C(=O)N[C@@H]1C(=O)N2C(C(=O)O)=C(COC(C)=O)CS[C@H]12)c1csc(N)n1 [Cefotaxime] + COc1cccc2c1C(=O)c1c(O)c3c(c(O)c1C2=O)C[C@@](O)(C(=O)CO)C[C@@H]3O[C@H]1C[C@H](N)[C@H](O)[C@H](C)O1 [Doxorubicin]
fitness, one replicate
Details	first compound 0.00775 µg/mL	first compound 0.0155 µg/mL	first compound 0.031 µg/mL	first compound 0.0625 µg/mL	first compound 0.125 µg/mL	first compound 0.25 µg/mL	first compound 0.625 µg/mL	first compound 1.25 µg/mL	first compound 2.5 µg/mL
[1], partner 0.625 µg/mL	0.844	0.659	0.476	0.382	0.227	0.187	–	–	–
[1], partner 1.25 µg/mL	0.771	0.571	0.371	0.337	0.232	0.196	–	–	–
[1], partner 2.5 µg/mL	0.35	0.0312	0.0055	0.0527	0.048	0.0308	–	–	–
[3], partner 0.625 µg/mL	–	–	–	–	–	–	0.0853	0.0304	0.0624
[3], partner 1.25 µg/mL	–	–	–	–	–	–	0.0701	0.0126	0.0183
[3], partner 2.5 µg/mL	–	–	–	–	–	–	0.0451	0	0.0123

Details	fitness
[1], first compound 0.5 µg/mL, partner 0.625 µg/mL	0.183
[1], first compound 0.5 µg/mL, partner 1.25 µg/mL	0.16
[1], first compound 0.5 µg/mL, partner 2.5 µg/mL	0.0662
[1], first compound 1 µg/mL, partner 0.625 µg/mL	0.106
[1], first compound 1 µg/mL, partner 1.25 µg/mL	0.0654
[1], first compound 1 µg/mL, partner 2.5 µg/mL	0.0366
[1], first compound 2 µg/mL, partner 0.625 µg/mL	0.0861
[1], first compound 2 µg/mL, partner 1.25 µg/mL	0.0715
[1], first compound 2 µg/mL, partner 2.5 µg/mL	0.0755
[2], first compound 0.039 µg/mL, partner 0.625 µg/mL	0.717
[2], first compound 0.039 µg/mL, partner 1.25 µg/mL	0.707
[2], first compound 0.039 µg/mL, partner 2.5 µg/mL	0.633
[2], first compound 0.078 µg/mL, partner 0.625 µg/mL	0.67
[2], first compound 0.078 µg/mL, partner 1.25 µg/mL	0.67
[2], first compound 0.078 µg/mL, partner 2.5 µg/mL	0.589
[2], first compound 0.156 µg/mL, partner 0.625 µg/mL	0.602
[2], first compound 0.156 µg/mL, partner 1.25 µg/mL	0.613
[2], first compound 0.156 µg/mL, partner 2.5 µg/mL	0.583
[2], first compound 0.312 µg/mL, partner 0.625 µg/mL	0.537
[2], first compound 0.312 µg/mL, partner 1.25 µg/mL	0.61
[2], first compound 0.312 µg/mL, partner 2.5 µg/mL	0.572
[3], first compound 0.078 µg/mL, partner 0.625 µg/mL	0.613
[3], first compound 0.078 µg/mL, partner 1.25 µg/mL	0.68
[3], first compound 0.078 µg/mL, partner 2.5 µg/mL	0.663
[3], first compound 0.156 µg/mL, partner 0.625 µg/mL	0.563
[3], first compound 0.156 µg/mL, partner 1.25 µg/mL	0.592
[3], first compound 0.156 µg/mL, partner 2.5 µg/mL	0.618
[3], first compound 0.312 µg/mL, partner 0.625 µg/mL	0.458
[3], first compound 0.312 µg/mL, partner 1.25 µg/mL	0.45
[3], first compound 0.312 µg/mL, partner 2.5 µg/mL	0.408
[4], first compound 0.0018 µg/mL, partner 0.25 µg/mL	0.944
[4], first compound 0.0018 µg/mL, partner 0.5 µg/mL	0.963
[4], first compound 0.0018 µg/mL, partner 1 µg/mL	0.863
[4], first compound 0.0035 µg/mL, partner 0.25 µg/mL	0.929
[4], first compound 0.0035 µg/mL, partner 0.5 µg/mL	0.944
[4], first compound 0.0035 µg/mL, partner 1 µg/mL	0.831
[4], first compound 0.007 µg/mL, partner 1 µg/mL	0.731

Details	Bliss interaction score
[5]	-0.17
[6]	-0.086
[7]	0.0946
[8]	0.0436

CO/N=C(\C(=O)N[C@@H]1C(=O)N2C(C(=O)O)=C(COC(C)=O)CS[C@H]12)c1csc(N)n1 [Cefotaxime] + C[C@@H]1O[C@@H]1P(=O)(O)O [Fosfomycin]
fitness, one replicate
Details	partner 0.781 µg/mL	partner 1.562 µg/mL	partner 3.124 µg/mL	partner 6.248 µg/mL
[1], first compound 0.00775 µg/mL	–	0.573	0.446	0.274
[1], first compound 0.0155 µg/mL	–	0.443	0.362	0.198
[1], first compound 0.031 µg/mL	–	0.319	0.225	0.156
[1], first compound 0.0625 µg/mL	–	0.454	0.413	0.34
[1], first compound 0.125 µg/mL	–	0.472	0.389	0.238
[1], first compound 0.25 µg/mL	–	0.367	0.337	0.186
[2], first compound 0.039 µg/mL	0.718	0.673	0.504	–
[3], first compound 0.039 µg/mL	0.58	0.511	0.202	–
[3], first compound 0.312 µg/mL	0.341	0.205	0.117	–

Details	fitness
[1], first compound 0.5 µg/mL, partner 1.562 µg/mL	0.244
[1], first compound 0.5 µg/mL, partner 3.124 µg/mL	0.194
[1], first compound 0.5 µg/mL, partner 6.248 µg/mL	0.16
[1], first compound 1 µg/mL, partner 1.562 µg/mL	0.134
[1], first compound 1 µg/mL, partner 3.124 µg/mL	0.102
[1], first compound 1 µg/mL, partner 6.248 µg/mL	0.0644
[1], first compound 2 µg/mL, partner 1.562 µg/mL	0.13
[1], first compound 2 µg/mL, partner 3.124 µg/mL	0.117
[1], first compound 2 µg/mL, partner 6.248 µg/mL	0.054
[2], first compound 0.078 µg/mL, partner 0.781 µg/mL	0.65
[2], first compound 0.078 µg/mL, partner 1.562 µg/mL	0.608
[2], first compound 0.078 µg/mL, partner 3.124 µg/mL	0.559
[2], first compound 0.156 µg/mL, partner 0.781 µg/mL	0.624
[2], first compound 0.156 µg/mL, partner 1.562 µg/mL	0.62
[2], first compound 0.156 µg/mL, partner 3.124 µg/mL	0.532
[2], first compound 0.312 µg/mL, partner 0.781 µg/mL	0.683
[2], first compound 0.312 µg/mL, partner 1.562 µg/mL	0.623
[2], first compound 0.312 µg/mL, partner 3.124 µg/mL	0.518
[3], first compound 0.078 µg/mL, partner 0.781 µg/mL	0.628
[3], first compound 0.078 µg/mL, partner 1.562 µg/mL	0.536
[3], first compound 0.078 µg/mL, partner 3.124 µg/mL	0.21
[3], first compound 0.156 µg/mL, partner 0.781 µg/mL	0.536
[3], first compound 0.156 µg/mL, partner 1.562 µg/mL	0.497
[3], first compound 0.156 µg/mL, partner 3.124 µg/mL	0.206
[3], first compound 0.625 µg/mL, partner 0.781 µg/mL	0.17
[3], first compound 0.625 µg/mL, partner 1.562 µg/mL	0.185
[3], first compound 0.625 µg/mL, partner 3.124 µg/mL	0.084
[3], first compound 1.25 µg/mL, partner 0.781 µg/mL	0.0664
[3], first compound 1.25 µg/mL, partner 1.562 µg/mL	0.033
[3], first compound 1.25 µg/mL, partner 3.124 µg/mL	0.0169
[3], first compound 2.5 µg/mL, partner 0.781 µg/mL	0.0252
[3], first compound 2.5 µg/mL, partner 1.562 µg/mL	0.0136
[3], first compound 2.5 µg/mL, partner 3.124 µg/mL	0.0374
[4], first compound 0.0018 µg/mL, partner 1.25 µg/mL	0.958
[4], first compound 0.0018 µg/mL, partner 2.5 µg/mL	0.959
[4], first compound 0.0018 µg/mL, partner 5 µg/mL	0.761
[4], first compound 0.0035 µg/mL, partner 1.25 µg/mL	0.962
[4], first compound 0.0035 µg/mL, partner 2.5 µg/mL	0.943
[4], first compound 0.0035 µg/mL, partner 5 µg/mL	0.736
[4], first compound 0.007 µg/mL, partner 1.25 µg/mL	0.897
[4], first compound 0.007 µg/mL, partner 2.5 µg/mL	0.778
[4], first compound 0.007 µg/mL, partner 5 µg/mL	0.533

Details	Bliss interaction score
[5]	0.0459
[6]	0.143
[7]	0.113
[8]	-0.0644

CO/N=C(\C(=O)N[C@@H]1C(=O)N2C(C(=O)O)=C(COC(C)=O)CS[C@H]12)c1csc(N)n1 [Cefotaxime] + C[n+]1ccc(-c2cc[n+](C)cc2)cc1 [Paraquat]
fitness, one replicate
Details	partner 1.25 µg/mL	partner 2.5 µg/mL	partner 5 µg/mL
[1], first compound 0.00775 µg/mL	0.847	0.764	0.596
[1], first compound 0.0155 µg/mL	0.694	0.613	0.332
[1], first compound 0.031 µg/mL	0.494	0.423	0.279
[2], first compound 0.039 µg/mL	0.729	0.775	0.767
[3], first compound 0.625 µg/mL	0.0489	0.0421	0.0459
[3], first compound 1.25 µg/mL	0.0645	0.0717	0.0769
[3], first compound 2.5 µg/mL	0.0777	0.0674	0.0627

fitness
Details	partner 1.25 µg/mL	partner 1.5 µg/mL	partner 2.5 µg/mL	partner 3 µg/mL	partner 5 µg/mL	partner 6 µg/mL
[1], first compound 0.5 µg/mL	0.199	–	0.171	–	0.166	–
[1], first compound 1 µg/mL	0.108	–	0.0698	–	0.0734	–
[1], first compound 2 µg/mL	0.0929	–	0.0597	–	0.0873	–
[2], first compound 0.078 µg/mL	0.762	–	0.767	–	0.748	–
[2], first compound 0.156 µg/mL	0.656	–	0.704	–	0.703	–
[2], first compound 0.312 µg/mL	0.611	–	0.664	–	0.65	–
[3], first compound 0.078 µg/mL	0.694	–	0.688	–	0.702	–
[3], first compound 0.156 µg/mL	0.521	–	0.542	–	0.573	–
[3], first compound 0.312 µg/mL	0.304	–	0.314	–	0.29	–
[4], first compound 0.0018 µg/mL	–	0.986	–	0.971	–	0.957
[4], first compound 0.0035 µg/mL	–	0.992	–	≥ 1	–	0.962
[4], first compound 0.007 µg/mL	–	0.944	–	0.93	–	0.843

Details	Bliss interaction score
[5]	-0.0771
[6]	-0.0739
[7]	-0.0297
[8]	-0.0531
